According to patent US20040176320A1, “Use of at least one glycoinhibitor substance” (priority 2001, published 2004):
Entries after “also recorded” stand apart in the source; their conditions may differ.

What was measured:
[1] = test system: β-galactosidase from jack beans; experiment: Inhibition of β-galactosidase cleavage of Galβ4GlcNAcβ3Galβ4Glc; assay type: biochemical; conditions: 55 mM inhibitor, 100 mU enzyme, 50 mM sodium citrate pH 4.0, 37° C., 8 h; no unreacted substrate without inhibitor
Description: Inhibition of β-galactosidase enzyme by D-galactono-1,4-lactone (Sigma, St Louis, USA). β-galactosidase from jack beans (EC 3.2.1.23, Sigma, St Louis, USA) is used to cleave terminal galactose from model oligosaccharide Galβ4GlcNAcβ3Galβ4Glc (Sigma, St Louis, USA). It is noted that the transition state analog galactosidase inhibitor is active against many galactosidases (Huber and Brockbank, 1987, actual active form is probably D-galactono-1,5-lactone) and that the jack bean β-galactosidase cleaves similarily other type 2 lactosamines such as e.g. Galβ4GlcNAcβ3Galβ4GlcNAcβ3Galβ4Glc, specific conditions are needed to cleave Galβ3GlcNAc-sequences or glycospingolipids. In Reaction 1, 25 nmol of Galβ4GlcNAcβ3Galβ4Glc is incubated with 100 mU of β-galactosidase from jack beans in-45 μl of 50 mM sodium citrate pH 4.0, at 37° C., for 8 h. Reaction 2 has the same composition, but contains additionally 55 mM D-galactono-1,4-lactone and it is incubated under the same condition for 8 h. The major products from Reaction 1 are Gal and GlcNAcβ3Galβ4Glc, while unreacted substrate is generally not observable by HPLC and mass spectrometric analysis, while Reaction 2 contains besides these typically more than 50% of uncleaved Galβ4GlcNAcβ3Galβ4Glc.

[2] = test system: Helicobacter pylori; experiment: TLC bacterial overlay assay: binding of 35S-labeled Helicobacter pylori to glycosphingolipids; conditions: for Helicobacter pylori binding activity (in words): TLC overlay; for binding frequency for Helicobacter pylori: strain 032, total number of plates about 100; for binding compared between Helicobacter pylori strains: strains 17875, 002 and 032
[3] = molecular target: T1, sialidase from Vibrio cholerae (Vibrio cholerae serotype O1, UniProt P0C6E9); experiment: Inhibition of sialidase cleavage of Neu5Acα3Galβ4Glc; assay type: biochemical; conditions: saturating concentrations
T1 construct: purchased Behringwerke, Marburg, Germany

[4] = test system: Helicobacter pylori; conditions: rhesus monkey (Mysore et al., 2000); cited from earlier work
[5] = test system: Helicobacter pylori; conditions: human gastrointestinal cell lines (Simon et al., 1999); cited from earlier work
[6] = dilution series, semi-quantitative TLC overlay

T1 sequence (P0C6E9 25-781): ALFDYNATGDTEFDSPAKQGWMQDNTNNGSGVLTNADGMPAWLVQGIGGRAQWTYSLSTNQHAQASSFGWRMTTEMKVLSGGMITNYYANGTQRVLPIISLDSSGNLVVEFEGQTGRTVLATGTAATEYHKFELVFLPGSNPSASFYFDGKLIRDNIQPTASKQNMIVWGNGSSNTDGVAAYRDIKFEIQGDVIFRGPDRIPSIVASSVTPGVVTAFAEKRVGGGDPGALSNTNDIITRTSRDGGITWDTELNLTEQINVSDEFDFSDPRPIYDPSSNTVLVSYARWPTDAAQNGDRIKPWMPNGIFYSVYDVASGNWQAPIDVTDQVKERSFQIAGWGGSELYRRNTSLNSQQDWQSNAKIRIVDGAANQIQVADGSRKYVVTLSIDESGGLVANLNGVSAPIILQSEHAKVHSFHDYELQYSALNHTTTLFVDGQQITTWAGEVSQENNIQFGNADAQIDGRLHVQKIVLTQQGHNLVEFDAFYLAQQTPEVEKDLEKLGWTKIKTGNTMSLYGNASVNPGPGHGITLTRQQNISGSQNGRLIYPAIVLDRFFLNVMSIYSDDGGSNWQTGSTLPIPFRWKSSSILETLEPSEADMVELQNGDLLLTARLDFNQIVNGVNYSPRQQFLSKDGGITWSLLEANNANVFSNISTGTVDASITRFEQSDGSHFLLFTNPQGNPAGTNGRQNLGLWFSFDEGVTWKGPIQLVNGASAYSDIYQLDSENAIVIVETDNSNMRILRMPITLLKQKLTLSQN

Molecule | Helicobacter pylori binding activity (in words) [2] | other results
O=C1O[C@@H]([C@H](O)CO)[C@H](O)[C@H]1O [D-galactono-1,4-lactone] |  | uncleaved Galβ4GlcNAcβ3Galβ4Glc [1]: more than 50%
CCCCCCCCCCCCCCCCc1ccc(NC[C@H](O)[C@@H](O)[C@H](O[C@@H]2O[C@H](CO)[C@H](O)[C@H](O[C@@H]3O[C@H](CO)[C@@H](O[C@@H]4O[C@H](CO)[C@H](O)[C@H](O[C@@H]5O[C@H](CO)[C@@H](O)[C@H](O)[C@H]5NC(C)=O)[C@H]4O)[C@H](O)[C@H]3NC(C)=O)[C@H]2O)[C@H](O)CO)cc1 [GlcNAcβ3Galβ4GlcNAcβ3Galβ4Glc(red)-HDA] | observable binding activity | 
CC(=O)N[C@H]1[C@H]([C@H](O)[C@H](O)CO)OC(C(=O)O)=C[C@@H]1O [Neu5Ac2en, 2,3-anhydro-2-deoxy-N-acetylneuraminic acid] |  | inhibition of the enzyme (in words) [3]: very effectively inhibited
CC(=O)N[C@H]1[C@H]([C@H](O)[C@H](O)CO)O[C@@](O[C@H]2[C@@H](O)[C@@H](CO)O[C@@H](O[C@H]3[C@H](O)[C@@H](O)C(O)O[C@@H]3CO)[C@@H]2O)(C(=O)O)C[C@@H]1O (stereo partly shown) [Sialyl-lactose] |  | efficacy in animal model of the infection [4]: effective; inhibition of Helicobacter pylori binding to cell lines [5]: inhibits Helicobacter pylori binding
Fucα2Galβ4GlcNAcβ3Galβ4Glcβ1Cer [No. 18] | absence of binding | 
GalNAcα3(Fucα2)Galβ4GlcNAcβ3Galβ4Glcβ1Cer [No. 22] | non-binding | 
GalNAcβ3Galα3Galβ4GlcNAcβ3Galβ4Glcβ1Cer [No. 25] | non-binding | 
GalNAcβ3Galβ4GlcNAcβ3Galβ4Glcβ1Cer [No. 11] | binding was also found | 
Galα3(Fucα2)Galβ4GlcNAcβ3Galβ4Glcβ1Cer [No. 23] | non-binding | 
Galα3Galβ4GlcNAcβ3Galβ4Glcβ1Cer [No. 13] | binding-active | 
Galα4Galβ4GlcNAcβ3Galβ4Glcβ1Cer [No. 15] | absence of binding | 
Galβ4GlcNAcβ3Galβ4GlcNAcβ3Galβ4Glcβ1Cer [No. 21] | displayed binding activity | amount in which glycolipid bound Helicobacter pylori [2, 6]: ~0.2 nmoles of glycolipid/spot; binding frequency for Helicobacter pylori [2]: ~90%; binding compared between Helicobacter pylori strains [2]: similar
Galβ4GlcNAcβ3Galβ4Glcβ1Cer [No. 5] | displayed binding activity | amount in which glycolipid bound Helicobacter pylori [2, 6]: ~0.3 nmoles of glycolipid/spot; binding compared between Helicobacter pylori strains [2]: similar
Galβ4GlcβCer [diglycosylceramide] | displayed binding activity | 
GlcNAcβ3Galβ4GlcNAcβ3Galβ4Glcβ1Cer [No. 10] |  | Helicobacter pylori binding activity (in words) ([2]; listed as pentaglycosylceramide): strong activity; also recorded: displayed binding activity; also recorded: highly active; amount giving a positive response on TLC plates ([2]; dilution series, semi-quantitative TLC overlay, mean value from 7 experiments): 0.039 nmol/spot; binding frequency for Helicobacter pylori [2]: ~90%; binding compared between Helicobacter pylori strains [2]: similar
GlcNAcβ3Galβ4Glcβ1Cer [No. 1] | inactive | 
NeuAcα3GalNAcβ3Galβ4GlcNAcβ3Galβ4Glcβ1Cer [No. 24] | non-binding | 
NeuGcα3Galβ4GlcNAcβ3Galβ4GlcNAcβ3Galβ4Glcβ1Cer [No. 27] |  | binding by Helicobacter pylori isolates ([2]; about 60 isolates tested): bound by most Helicobacter pylori isolates
maltoheptaose(red)-HDA [maltoheptaose/red)-HDA, reference compound] | totally inactive | 
